Experimental data published in PubChem BioAssay (NCI).
Several values for one entry are separate records, joined by “and”; a condition that tells them apart may be missing. Identical values can stand only once.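 Assay format: 96-well plates, 48-hour exposure. GI50 marks 50% less growth. TGI: total growth inhibition.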

What was measured:
Assay in all cases: NCI tumour cell line growth inhibition, 48 h
786-0 renal = tested on: 786-0 renal
MDA-MB-231 breast = tested on: MDA-MB-231 breast
HS 578T breast = tested on: HS 578T breast
OVCAR-8 ovarian = tested on: OVCAR-8 ovarian
SK-MEL-5 melanoma = tested on: SK-MEL-5 melanoma
T-47D breast = tested on: T-47D breast
CCRF-CEM leukemia = tested on: CCRF-CEM leukemia
SF-295 CNS = tested on: SF-295 CNS
MALME-3M melanoma = tested on: MALME-3M melanoma
NCI-H23 lung = tested on: NCI-H23 lung

SMILES	GI50 (786-0 renal) [µM]	TGI (786-0 renal) [µM]	GI50 (MDA-MB-231 breast) [µM]	TGI (MDA-MB-231 breast) [µM]	GI50 (HS 578T breast) [µM]	TGI (HS 578T breast) [µM]	GI50 (OVCAR-8 ovarian) [µM]	TGI (OVCAR-8 ovarian)	GI50 (SK-MEL-5 melanoma) [µM]	TGI (SK-MEL-5 melanoma) [µM]	GI50 (T-47D breast) [µM]	TGI (T-47D breast) [µM]	GI50 (CCRF-CEM leukemia) [µM]	TGI (CCRF-CEM leukemia)	GI50 (SF-295 CNS)	TGI (SF-295 CNS) [µM]	GI50 (MALME-3M melanoma) [µM]	TGI (MALME-3M melanoma) [µM]	GI50 (NCI-H23 lung) [µM]	TGI (NCI-H23 lung) [µM]
Cn1cc(C2=C(c3cn(CCCN)c4ccccc34)C(=O)NC2=O)c2ccccc21	4.75	14.2	6.49	16.7	3.91	16.8	5.46	14.7 µM	3.77	7.26	6.4	17.5	2.59	12.1 µM	7.38 µM	> 25	5.66	10.6	5.17	14.2
CS(=O)(=O)c1cccc(Nc2ncc3cc(-c4ccccc4Cl)ccc3n2)c1	1.38	> 33.3	1.37	12.2	1.23	10.3	1.44	32 µM	1.08	4.04	1.1	> 33.3	1.47	> 33.3 µM	1.6 µM	> 33.3	1.22	9.84	1.98	> 33.3
COC1C=COC2(C)Oc3c(C)c(O)c4c(O)c(c(C5SCCS5)c(O)c4c3C2=O)NC(=O)/C(C)=C\C=CC(C)C(O)C(C)C(O)C(C)C(OC(C)=O)C1C (stereo not given)		48.4		18.9		40.6		26 µM		20.8		11.7		5.33 µM		17.6		26.7		18.4
O=C(c1ccc([N+](=O)[O-])cc1)C(Br)C(Br)c1ccnc2ccccc12 (stereo not given)		7.44		27.8		> 27.2		42.3 µM		20		> 56.6		2.11 µM		21.1		25.4		> 21.9
O=C(NCCOCCOCCOCCNC(=O)c1cc2c(o1)C(=O)c1ccccc1C2=O)NC12CC3CC(CC(C3)C1)C2	2.89	11	3.04	16.6	2.18	6.85	1.44	8.34 µM	0.303	1.02	1.59	6.02	3.23	> 100 µM	1.65 µM	3.07	0.191	0.489	0.234	1.97
CC(=O)/C(Br)=C/c1ccc(Br)o1	16.5	34.2	14.8	30	2.39	7.22	3.33	> 35.8 µM	10.3	22.6	8.89	24.2	2.04	5.85 µM	18.7 µM	38.7	6.15	14.3	12.1	41.7
Oc1[nH]c2ccccc2c1/C=c1/ccc2c(c1)N=C(c1ccc(C(F)(F)F)cc1)N=2	1.48	3.56	2.04	14	3.09	12.7	5.94	20.3 µM	8.72	20.9	3.58	14.4	1.65	5.05 µM	2.7 µM	12.2	2.9	9.23	3.39	15.7
c1ccc(Oc2ccc(Nc3ncc(-c4ccccc4)o3)cc2)cc1	> 25	> 25	> 25	> 25	> 25	> 25	> 25	> 25 µM	> 25	> 25	> 25	> 25	> 25	> 25 µM	> 25 µM	> 25	> 25	> 25	> 25	> 25
COc1ccccc1/C=C\C(=O)C1COCN1 (stereo not given)		75.5		38.8		50.9		30.6 µM		25.1		20.7		> 100 µM		50.8		45.7		> 100
COc1cc(-c2nc3ccccc3o2)cc(CN2CCCCC2)c1O	20.3	89.8	12.2	> 100	2.37	7.44	11.4	94.3 µM	1.09	2.3	17	> 100	4.06	> 100 µM	1.85 µM	6.6	1.8	3.87	1.54	5.26
C=C1C(=O)O[C@H]2[C@H]1CC/C(COC(=O)/C=C\C(=O)NCc1ccc(Cn3c(=O)sn(CCI)c3=O)cc1)=C\CC[C@@]1(C)O[C@@H]21	2.6	7.23	2.52	6.68	14	73.6	2.78	8.76 µM	12.8	25.7	2.58	6.83	1.61	6.19 µM	18.9 µM	33.4	1.85	3.63	3.34	11.8
O=C1NC2(CCCCC2)C(=O)N1CCN(CCCl)CCCl		> 25		> 25		> 25	> 25	> 25 µM and 173 µM	> 25	> 250		25	12.2	25 µM and 212 µM	> 25 µM and 138 µM	> 250	> 25	> 194	24.8	
Cc1ccc(Cl)c(NS(=O)(=O)c2ccc(-c3cnc(C4CC4)o3)cc2)c1	0.0772	> 100	0.651	> 100	0.0729	> 69.6	0.258	> 58.9 µM	0.399	3.72	0.0481	67.9	0.0777	> 100 µM	0.0377 µM	0.182	11	49.7	0.365	62.8
COc1ccccc1[As]=[As]c1ccccc1OC (stereo not given)	0.0377	0.0853	0.0564	0.182	0.0378	0.334	0.0507	0.194 µM	0.0468	0.163	0.0366	0.199	0.026	0.113 µM	0.104 µM	0.264	0.0443	0.145	0.0653	0.204
